In US20230143604A1, “QW DOSING OF GIP RECEPTOR AGONIST PEPTIDE COMPOUNDS AND USES THEREOF” (TAKEDA PHARMACEUTICAL COMPANY LIMITED, priority 2020, published 2023):
pEC50: −log10 of the molar value. Read-outs that look alike come from different tables or passages of the source. Starred links: 1 amine or outer side, 2 acyl side, 3 side chain; linkers in the order of their positions; H or OH if unused. Non-standard residues stand in square brackets, D forms with d. Residues, ends and D or L forms follow the SMILES beside them. Groups on a side chain read outwards from the residue. *: point of attachment. C18 diacid = O=C(O)CCCCCCCCCCCCCCCCC(=O)*; γGlu = O=C(O)[C@H](CCC(=O)[*:2])N[*:1]; NMeY = CN[C@@H](Cc1ccc(O)cc1)C(=O)O; AEEA = NCCOCCOCC(=O)O; Aib = CC(C)(N)C(=O)O

Legend:
[1] = Human plasma protein binding (PPB); assay type: in vitro ADME; settings: for fraction unbound: both sexes, pH 7.4, human plasma, 1000 nmol/L peptide, ultracentrifugation, read-out: Human PPB (FUplasma); for free unbound peptide in human plasma (in words): judged for once per week (QW) dosing
Procedure, shortened: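 Peptides spiked at 1000 nmol/L into pooled human K2-EDTA plasma adjusted to pH 7.4, incubated 30 min at 37 °C, then ultracentrifuged at ~450,000 g, 4 °C for 3 h. Fu derived from LC-MS/MS (MRM) peak area ratios, supernatant versus plasma.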

male ferrets = assay type: in vivo
Procedure: 1. Effect of subcutaneously administered GIP receptor agonist peptide in morphine-induced acute emetic model.
To evaluate the antiemetic effect, the GIP receptor agonist peptides other than natural human GIP are subcutaneously administered into male ferrets 24 hrs before morphine administration. Up to 60 minutes after morphine administration, the condition of the ferrets is monitored to record the frequencies and time points of abdominal contraction motions, vomiting behaviors, licking with the tongue, and fidgety behavior occurring. GIP receptor agonist peptide compounds of the present disclosure dosed at 0.3-10 nmol/kg attenuated the morphine (0.6 mg/kg, s.c.)-induced emesis in the ferrets.
GIP receptor agonist peptides are dissolved with a vehicle (0.09 w/v % tween 80/10% DMSO/saline), respectively, to prepare test solutions. […] of the test solutions and the vehicle are subcutaneously administered to ferrets (4 in each group), respectively. At the time of each of 4 or 24 hours after administration, 0.6 mg/kg of morphine is subcutaneously administered.

physchem = test: physchem
Procedure, shortened: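 Solubility at pH 7.4 determined by stepwise addition of 200 mM phosphate buffer in 100 μL increments to 3 mg peptide, mixing briefly each time, until no insoluble material remained, then measured by liquid chromatography.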

[2] = Dog plasma protein binding (PPB); assay type: in vitro ADME; settings: pH 7.4; fraction unbound; dog serum; read-out: Dog PPB (FUplasma)
Procedure, shortened: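 Fraction unbound (Fu,plasma) is given as a percentage. It was measured with the method and analysis of the human protein-binding protocol, but using dog serum in place of human serum.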

[3] = Pharmacokinetics in dog after IV and SC dosing; settings: in vivo; for half-life: IV 3 nmol/kg, read-out: IV T½ (converted); for MRT last: SC 3 nmol/kg, read-out: SC MRT 0-last
Procedure, shortened: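 Dogs were dosed IV or SC at 1 mL/kg with peptide at 3 nmol/mL in 10% DMSO/0.09% Polysorbate/PBS pH 7.4. K2-EDTA plasma was sampled to 336 h, and peptide was quantified by LCMS to derive half-life.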

C57BL/6J mice = test: Oral glucose tolerance test (OGTT); assay type: in vivo; settings: 3 nmol/kg s.c., 24 hours before glucose loading
Procedure, shortened: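 Peptide or vehicle given s.c. at 0.1, 0.3, 3 or 10 nmol/kg (peptide-dependent), 24 h before oral 50% dextrose at 5 ml/kg unless stated otherwise. Blood glucose read at 0, 15, 30 and 60 min. % inhibition = (1−(AUC cpd−AUC naïve)/(AUC veh−AUC naïve))×100.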

human GLP-1R = target: T1, human GLP-1R (Homo sapiens, UniProt P43220); test: Human GLP1R agonist activity, intracellular cAMP accumulation; assay type: cell-based; settings: HEK-293T cells overexpressing human GLP-1R, 1 hr, read-out: Human GLP1R cAMP EC50, HEK293T
T1 construct: HEK-293T cells overexpressing full-length human GLP-1R; FLAG (N); host or cells: HEK-293T
T1 sequence (P43220 24-463): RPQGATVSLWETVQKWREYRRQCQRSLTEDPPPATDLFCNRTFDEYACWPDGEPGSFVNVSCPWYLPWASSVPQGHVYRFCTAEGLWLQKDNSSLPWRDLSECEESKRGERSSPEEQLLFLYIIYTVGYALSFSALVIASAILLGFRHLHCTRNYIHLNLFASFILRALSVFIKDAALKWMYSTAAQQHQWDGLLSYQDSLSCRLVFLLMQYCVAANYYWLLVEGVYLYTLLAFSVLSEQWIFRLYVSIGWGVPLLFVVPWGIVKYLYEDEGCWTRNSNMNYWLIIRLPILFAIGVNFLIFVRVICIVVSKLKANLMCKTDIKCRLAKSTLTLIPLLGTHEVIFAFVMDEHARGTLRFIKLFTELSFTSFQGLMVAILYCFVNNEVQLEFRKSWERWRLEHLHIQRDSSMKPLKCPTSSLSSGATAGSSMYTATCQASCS
Procedure, shortened: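 cAMP accumulation is measured by HTRF after a 1 hr, room-temperature, dark exposure of thawed cells (4×10^5 cells/mL in Krebs Ringer buffer) to compound. Activity is scaled between DMSO alone as 0% and 1 nm GLP-1 as 100%.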

female beagle dogs = test: PYY-1119-induced vomiting in dogs; assay type: in vivo; settings: 3 nmol/kg s.c., 72 hours post-dose (lower line)
Procedure: The GIPR agonist peptide compounds of the present disclosure or vehicle (0.09% [w/v] Tween 80/10% DMSO/PBS) were administered subcutaneously (sc) at 3-10 nmol/kg to female beagle dogs (10 months old), followed by sc injections with Y2R agonist ((4-imidazolecarbonyl-Ser-D-Hyp-Iva-Pya(4)-Cha-Leu(Me)-Asn-Lys-Aib-Thr-Arg-Gln-Arg-Cha-NH2), […]), […]) at 1 hour or specified hours in the table postdose. Emetic episodes were counted for 2 hours after administration (by blinded analysis).

Dogs = assay type: in vivo; settings: 10 nmol/kg s.c.
Procedure: Dogs are transferred to an observation cage (700 mm W×700 mm D×700 mm H [W×D×H], without food) on 1 day before each apomorphine challenge. The dogs are weighed by using an electronic balance then test peptide compounds and vehicle will be administrated via the subcutaneous route. Apomorphine is challenged at 8 hr after the administration and emetic events will be monitored for 1 h by video recording. The second apomorphine challenge will be 72 hr after the administration and emetic events will be recorded by the same protocol. Emesis symptoms are continuously recorded using a video camera and stored on a blue ray disc. Observation of symptoms include retching (a rhythmic contraction of the abdomen) and vomiting (vomiting behavior, including the elimination of vomitus or similar behavior). Besides, the combination of retching and vomiting is defined as emesis, and the number of episodes, latency (time elapsed from morphine administration until the onset of the first emesis symptom), duration (time elapsed between the onset of the first and final episodes of emesis), and frequency (number of animals showing emesis/number of experimental animals) of each of these symptoms is calculated. The latency in cases where emesis symptoms are not noted is taken as the maximum value (1 h for apomorphine challenge) at the end of observation. When the duration of the emesis symptoms is less than 1 min, the duration is recorded, for convenience, as 1 min.

| Compound | fraction unbound [1] | free unbound peptide in human plasma (in words) [1] | % inhibition of emetic events at doses (nmol/kg) and timepoints shown in ferret morphine model (male ferrets; in vivo, sc, 24 h) | solubility (physchem; pH 7.4) | solubility (physchem; pH 7.4, aqueous buffer) | fraction unbound [2] | half-life [3] | MRT last [3] | % inhibition of emetic events at doses (nmol/kg) and timepoints shown in ferret morphine model (male ferrets; 24 hrs, 1 nmol/kg s.c.) | effect on morphine-induced emesis in ferrets (in words) (male ferrets; morphine 0.6 mg/kg s.c., peptides dosed at 0.3-10 nmol/kg s.c.) | Oral Glucose Tolerance Test Percent decrease in blood glucose AUC (%) over 60 mins (C57BL/6J mice) | pEC50 (human GLP-1R) | Inhibition (%) of PYY-1119-induced emetic event (female beagle dogs) | % inhibition of emetic events at doses (nmol/kg) shown in dog apomorphine model (Dogs; after 8 hrs (upper)) | % inhibition of emetic events at doses (nmol/kg) shown in dog apomorphine model (Dogs; after 72 hours (lower)) | solubility (physchem; pH 7.4, aqueous buffer, pH 7.4 Phosphate Buffer - Solubility, 200 mM Phosphate buffer pH 7.4) | solubility (physchem; pH 7.4, solubility in phosphate buffer at pH 7.4, 200 mM phosphate buffer pH 7.4) |
| --- | --- | --- | --- | --- | --- | --- | --- | --- | --- | --- | --- | --- | --- | --- | --- | --- | --- |
| CC[C@H](C)[C@H](NC(=O)[C@H](Cc1ccccc1)NC(=O)[C@@H](NC(=O)CNC(=O)[C@H](CCC(=O)O)NC(=O)C(C)(C)NC(=O)[C@H](Cc1ccc(O)cc1)NC)[C@@H](C)O)C(=O)N[C@@H](CO)C(=O)N[C@@H](CC(=O)O)C(=O)N[C@@H](Cc1ccc(O)cc1)C(=O)N[C@@H](CO)C(=O)N[C@H](C(=O)NC(C)(C)C(=O)N[C@@H](CC(C)C)C(=O)N[C@@H](CC(=O)O)C(=O)N[C@@H](CCCNC(=N)N)C(=O)NC(C)(C)C(=O)N[C@@H](C)C(=O)N[C@@H](CCC(N)=O)C(=O)NC(C)(C)C(=O)N[C@@H](CCCCNC(=O)COCCOCCNC(=O)COCCOCCNC(=O)CC[C@H](NC(=O)CC[C@H](NC(=O)CCCCCCCCCCCCCCCCC(=O)O)C(=O)O)C(=O)O)C(=O)N[C@@H](Cc1ccccc1)C(=O)N[C@H](C(=O)N[C@@H](CC(N)=O)C(=O)N[C@@H](Cc1c[nH]c2ccccc12)C(=O)N[C@@H](CC(C)C)C(=O)N[C@@H](CC(C)C)C(=O)N[C@@H](C)C(=O)N[C@@H](CCC(N)=O)C(=O)N[C@@H](CCCNC(=N)N)C(=O)NCC(=O)O)C(C)C)[C@@H](C)CC [Compound 72, Me-Y-Aib-E-G-T-F-I-S-D-Y-S-I-Aib-L-D-R-Aib-A-Q-Aib-Km-F-V-N-W-L-L-A-Q-R-G-OH] (H-[NMeY][Aib]EGTFISDYSI[Aib]LDR[Aib]AQ[Aib]K([AEEA-AEEA-γGlu-γGlu-C18 diacid])FVNWLLAQRG-OH) | 0.0036 | optimum free unbound peptide | 100% (3 nmol/kg); 100% | ≥ 15 mg/mL | ≥ 60 mg/mL | 0.0062 | 92 h | 125 h | – | – | – | – | – | – | – | – | – |
| CC[C@H](C)[C@H](NC(=O)[C@H](CO)NC(=O)[C@H](Cc1ccc(O)cc1)NC(=O)[C@H](CC(=O)O)NC(=O)[C@H](CO)NC(=O)[C@@H](NC(=O)[C@H](Cc1ccccc1)NC(=O)[C@@H](NC(=O)CNC(=O)[C@H](CCC(=O)O)NC(=O)C(C)(C)NC(=O)[C@H](Cc1ccc(O)cc1)NC)[C@@H](C)O)[C@@H](C)CC)C(=O)N[C@@H](C)C(=O)N[C@@H](CCCCNC(=O)CNC(=O)CNC(=O)CNC(=O)CNC(=O)CNC(=O)CCCCCCCCCCCCCCCCC(=O)O)C(=O)N[C@@H](CC(=O)O)C(=O)N[C@@H](CCCNC(=N)N)C(=O)NC(C)(C)C(=O)N[C@@H](C)C(=O)N[C@@H](CCC(N)=O)C(=O)NC(C)(C)C(=O)N[C@@H](CC(=O)O)C(=O)N[C@@H](Cc1ccccc1)C(=O)N[C@H](C(=O)N[C@@H](CC(N)=O)C(=O)N[C@@H](Cc1c[nH]c2ccccc12)C(=O)N[C@@H](CC(C)C)C(=O)N[C@@H](CC(C)C)C(=O)N[C@@H](C)C(=O)N[C@@H](CCC(N)=O)C(=O)N[C@@H](CO)C(=O)N1CCC[C@H]1C(=O)NCC(=O)O)C(C)C [Compound 84, Me-Y-Aib-E-G-T-F-I-S-D-Y-S-I-A-Km-D-R-Aib-A-Q-Aib-D-F-V-N-W-L-L-A-Q-S-P-G-OH] | 0.0009 | optimum free unbound peptide | – | ≥ 15 mg/mL | ≥ 60 mg/mL | 0.0003 | 62 h | 82 h | 24 hrs: 65% (1 nmol/kg); | effective in completely inhibiting the frequency of emesis | 72% (3 nmol/kg) | 7.23 | – | – | – | – | – |
| CC[C@H](C)[C@H](NC(=O)[C@H](Cc1ccccc1)NC(=O)[C@@H](NC(=O)CNC(=O)[C@H](CCC(=O)O)NC(=O)C(C)(C)NC(=O)[C@H](Cc1ccc(O)cc1)NC)[C@@H](C)O)C(=O)N[C@@H](CO)C(=O)N[C@@H](CC(=O)O)C(=O)N[C@@H](Cc1ccc(O)cc1)C(=O)N[C@@H](CO)C(=O)N[C@H](C(=O)NC(C)(C)C(=O)N[C@@H](CCCCNC(=O)CNC(=O)CNC(=O)CNC(=O)CNC(=O)CNC(=O)CCCCCCCCCCCCCCCCC(=O)O)C(=O)N[C@@H](CC(=O)O)C(=O)N[C@@H](CCCNC(=N)N)C(=O)NC(C)(C)C(=O)N[C@@H](C)C(=O)N[C@@H](CCC(N)=O)C(=O)NC(C)(C)C(=O)N[C@@H](CC(=O)O)C(=O)N[C@@H](Cc1ccccc1)C(=O)N[C@H](C(=O)N[C@@H](CCC(=O)O)C(=O)N[C@@H](Cc1c[nH]c2ccccc12)C(=O)N[C@@H](CC(C)C)C(=O)N[C@@H](CC(C)C)C(=O)N[C@@H](C)C(=O)N[C@@H](CCC(N)=O)C(=O)N[C@@H](CCCNC(=N)N)C(=O)NCC(=O)O)C(C)C)[C@@H](C)CC [Compound 108] | – | – | – | ≥ 15 mg/mL | ≥ 60 mg/mL | – | – | – | – | – | 65% (3 nmol/kg) | 7.38 | 96% (3 nmol/kg) | 50% (10 nmol/kg) | 54% (10 nmol/kg) | – | – |
| CC[C@H](C)[C@H](NC(=O)[C@H](CCCNC(=N)N)NC(=O)[C@H](CC(=O)O)NC(=O)[C@H](CCCCNC(=O)CNC(=O)CNC(=O)CNC(=O)CNC(=O)CNC(=O)CCCCCCCCCCCCCCCCC(=O)O)NC(=O)[C@H](C)NC(=O)[C@@H](NC(=O)[C@H](CO)NC(=O)[C@H](Cc1ccc(O)cc1)NC(=O)[C@H](CC(=O)O)NC(=O)[C@H](CO)NC(=O)[C@@H](NC(=O)[C@H](Cc1ccccc1)NC(=O)[C@@H](NC(=O)CNC(=O)[C@H](CCC(=O)O)NC(=O)C(C)(C)NC(=O)[C@H](Cc1ccc(O)cc1)NC)[C@@H](C)O)[C@@H](C)CC)[C@@H](C)CC)C(=O)N[C@@H](C)C(=O)N[C@@H](CCC(N)=O)C(=O)N[C@@H](CCCNC(=N)N)C(=O)N[C@@H](CC(N)=O)C(=O)N[C@@H](Cc1ccccc1)C(=O)N[C@H](C(=O)N[C@@H](CCC(=O)O)C(=O)N[C@@H](Cc1c[nH]c2ccccc12)C(=O)N[C@@H](CC(C)C)C(=O)N[C@@H](CC(C)C)C(=O)N[C@@H](C)C(=O)N[C@@H](CCC(N)=O)C(=O)N[C@@H](CO)C(=O)N1CCC[C@H]1C(=O)N[C@@H](CO)C(=O)N[C@@H](CO)C(=O)NCC(=O)N[C@@H](C)C(=O)N1CCC[C@H]1C(=O)N1CCC[C@H]1C(=O)N1CCC[C@H]1C(=O)N[C@@H](CO)C(=O)O)C(C)C [Compound 179] | – | – | – | – | – | – | – | – | – | – | 58% (3 nmol/kg) | – | 45% (3 nmol/kg) | – | – | ≥ 30 mg/mL | ≥ 15 mg/mL |
